# From ChEMBL document CHEMBL1201862, “PubChem BioAssay data set” (2004)
# The source made the active and inactive calls.
# What was measured:
# [1] = target: T1, G-protein coupled receptor 35 (Homo sapiens, UniProt Q9HC97); assay: SAR analysis of Antagonists of the GPR35 Receptor using an Image-Based Assay - Set 5. [Related pubchem assays (depositor defined):AID2058, AID2079]; type: functional
# [2] = target: T1, G-protein coupled receptor 35; assay: SAR Analysis for the identification of Selective Antagonists of ERK1/2 Activity in GPR35-Overexpressing U2OS Cells - Set 2. [Related pubchem assays (depositor defined):AID2058, AID2079]; type: functional, cell-based
# [3] = target: T1, G-protein coupled receptor 35; assay: inhibition of zaprinast-stimulated GPR35 beta-arrestin translocation – imaging, U2OS, beta-arrestin-GFP, zaprinast agonist, primary screen (AID 2058); type: functional;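 note: antagonist potency meaning inhibition of agonist-induced arrestin redistribution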
# [4] = target: G-protein coupled receptor 55 (Homo sapiens, UniProt Q9Y2T6); assay: SAR Analysis of Selective Antagonists of GPR55 using an Image-Based Assay - Set 3. [Related pubchem assays (depositor defined):AID2058, AID2079]; type: functional
# [5] = target: Voltage-dependent T-type calcium channel subunit alpha-1H (Homo sapiens, UniProt O95180); assay: human CACNA1H calcium influx blockade – cell-based, synthetic library set 1, calcium flux (AID 493022); type: functional
# [6] = target: Delta-type opioid receptor (Homo sapiens, UniProt P41143); assay: SAR Analysis of Antagonists of the DOR Receptor using an Image-Based Assay - Set 3. [Related pubchem assays (depositor defined):AID1777, AID1785]; type: functional;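 note: U2OS cells expressing DOR1 and beta-arrestin GFP stimulated with 100 nM SNC80; imaging of GFP-tagged beta-arrestin moving into spots after receptor activation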
# Mu-type opioid receptor = Mu-type opioid receptor (Homo sapiens, UniProt P35372); assay: SAR Analysis of Antagonists of the MOR Receptor using an Image-Based Assay - Set 3. [Related pubchem assays (depositor defined):AID1777, AID1785, AID1786, AID1966, AID2133, AID2136, AID2284, AID2285, AID2420]; type: functional
# [7] = target: T2, Kappa-type opioid receptor (Homo sapiens, UniProt P41145); assay: SAR analysis of Antagonists of the Kappa Opioid Receptor (KOR) using an Image-Based Assay - Set 4. [Related pubchem assays (depositor defined):AID1777, AID1785]; type: functional
# [8] = target: T2, Kappa-type opioid receptor; assay: SAR analysis of small molecule antagonists of the kappa opioid receptor via a luminescent beta-arrestin assay - Set 4. [Related pubchem assays (depositor defined):AID1777, AID1778, AID1785, AID1786, AID1966, AID2133, AID2136, AID2285]; type: functional
# T-cell = assay: loss of vesicle association with mouse CD8+ T cells – mouse 2C CD8+ T cells, flow cytometry, dose response (AID 485284); type: functional
# [9] = target: T3, RNA-binding protein pos-1 (Caenorhabditis elegans, UniProt G5EF15); assay: disruptors of C. elegans POS-1 RNA interaction – biochemical, fluorescence polarization, dose response (AID 1964);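 note: purified POS-1 fused to maltose binding protein made in E. coli; potency of compounds blocking POS-1 binding to fluorescent RNA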
# T3 sequence (G5EF15 whole entry): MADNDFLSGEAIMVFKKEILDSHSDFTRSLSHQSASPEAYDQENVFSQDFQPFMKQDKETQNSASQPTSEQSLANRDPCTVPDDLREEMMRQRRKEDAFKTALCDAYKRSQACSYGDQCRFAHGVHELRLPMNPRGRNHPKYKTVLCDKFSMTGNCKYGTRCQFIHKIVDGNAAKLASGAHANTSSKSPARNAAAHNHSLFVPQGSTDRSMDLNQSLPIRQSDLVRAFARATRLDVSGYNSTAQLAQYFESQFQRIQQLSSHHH
# [10] = target: T4, Zinc finger protein mex-5 (Caenorhabditis elegans, UniProt Q9XUB2); assay: potency of MEX-5 RNA-binding blockers – biochemical, C. elegans, fluorescence polarization, dose response (AID 1960)
# T4 sequence (Q9XUB2 whole entry): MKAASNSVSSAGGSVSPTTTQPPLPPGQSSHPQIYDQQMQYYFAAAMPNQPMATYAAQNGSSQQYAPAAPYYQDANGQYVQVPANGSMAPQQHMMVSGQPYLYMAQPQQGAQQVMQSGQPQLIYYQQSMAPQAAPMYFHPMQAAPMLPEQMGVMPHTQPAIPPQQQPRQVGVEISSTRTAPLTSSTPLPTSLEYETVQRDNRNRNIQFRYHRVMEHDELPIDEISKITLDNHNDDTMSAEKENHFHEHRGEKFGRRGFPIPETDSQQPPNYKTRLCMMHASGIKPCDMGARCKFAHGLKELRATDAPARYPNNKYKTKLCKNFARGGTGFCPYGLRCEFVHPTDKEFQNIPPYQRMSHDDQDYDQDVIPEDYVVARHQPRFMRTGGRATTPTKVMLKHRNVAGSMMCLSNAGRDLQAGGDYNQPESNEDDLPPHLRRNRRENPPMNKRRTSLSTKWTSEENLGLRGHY
# ORF 73 = ORF 73 (Human herpesvirus 8, UniProt O40947); assay: KSHV LANA DNA-binding disruption – biochemical, fluorescence polarization, cherry-picked samples, dose response (AID 504725); set-up: species or system Human gammaherpesvirus 8;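 note: fluorescence polarization of a labeled DNA duplex reporting LANA DNA binding; potency is for inhibitors that block LANA binding to the DNA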
# Aminopeptidase N = target: T5, Aminopeptidase N (Plasmodium falciparum FcB1/Columbia, UniProt O96935); assay: malaria alanyl aminopeptidase activity blockers – biochemical, fluorogenic H-Leu-NHMec substrate, 1536-well (AID 1445); set-up: species or system Plasmodium falciparum 3D7, 3D7
# T5 sequence (O96935 whole entry): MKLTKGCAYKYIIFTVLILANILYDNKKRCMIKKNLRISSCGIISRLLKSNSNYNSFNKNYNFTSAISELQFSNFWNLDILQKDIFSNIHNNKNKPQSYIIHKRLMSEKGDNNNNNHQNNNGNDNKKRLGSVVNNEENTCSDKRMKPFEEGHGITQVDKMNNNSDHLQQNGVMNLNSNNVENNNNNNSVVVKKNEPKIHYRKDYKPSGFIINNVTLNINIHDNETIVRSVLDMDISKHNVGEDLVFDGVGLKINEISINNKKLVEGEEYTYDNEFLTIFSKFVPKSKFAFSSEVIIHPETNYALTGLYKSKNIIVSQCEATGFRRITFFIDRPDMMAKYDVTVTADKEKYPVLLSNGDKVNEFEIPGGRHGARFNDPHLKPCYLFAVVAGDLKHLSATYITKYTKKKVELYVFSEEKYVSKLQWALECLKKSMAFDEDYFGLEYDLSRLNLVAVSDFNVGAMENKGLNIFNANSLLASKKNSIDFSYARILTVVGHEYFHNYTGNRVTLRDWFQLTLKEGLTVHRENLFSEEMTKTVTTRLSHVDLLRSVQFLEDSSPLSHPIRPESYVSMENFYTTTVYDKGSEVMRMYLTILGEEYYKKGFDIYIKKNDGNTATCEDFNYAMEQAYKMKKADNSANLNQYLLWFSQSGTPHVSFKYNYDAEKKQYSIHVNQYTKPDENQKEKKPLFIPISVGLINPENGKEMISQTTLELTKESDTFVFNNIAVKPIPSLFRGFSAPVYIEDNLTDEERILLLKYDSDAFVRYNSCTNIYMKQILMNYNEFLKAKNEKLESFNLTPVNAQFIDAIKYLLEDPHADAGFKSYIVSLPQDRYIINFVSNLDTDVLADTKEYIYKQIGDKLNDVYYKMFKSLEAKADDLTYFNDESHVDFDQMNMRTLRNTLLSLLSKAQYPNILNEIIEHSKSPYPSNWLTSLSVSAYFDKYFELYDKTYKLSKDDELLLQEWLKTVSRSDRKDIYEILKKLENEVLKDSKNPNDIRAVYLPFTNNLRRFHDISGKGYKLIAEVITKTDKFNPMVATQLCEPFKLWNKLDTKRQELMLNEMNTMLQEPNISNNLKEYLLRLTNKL
# HEK293 = assay: EBV LMP1 TES2 canonical NF-kB signalling blockers – cell-based, HEK293, luciferase, cherry-pick, dose response (AID 588343); type: functional; details: Homo sapiens
# Hexokinase HKDC1 [11] = target: T6, Hexokinase HKDC1 (Homo sapiens, UniProt Q2TB90); assay: activation of HKDC1 glucose phosphorylation – biochemical, W721R variant, dose response (AID 504730); type: functional
# T6 sequence (Q2TB90 whole entry): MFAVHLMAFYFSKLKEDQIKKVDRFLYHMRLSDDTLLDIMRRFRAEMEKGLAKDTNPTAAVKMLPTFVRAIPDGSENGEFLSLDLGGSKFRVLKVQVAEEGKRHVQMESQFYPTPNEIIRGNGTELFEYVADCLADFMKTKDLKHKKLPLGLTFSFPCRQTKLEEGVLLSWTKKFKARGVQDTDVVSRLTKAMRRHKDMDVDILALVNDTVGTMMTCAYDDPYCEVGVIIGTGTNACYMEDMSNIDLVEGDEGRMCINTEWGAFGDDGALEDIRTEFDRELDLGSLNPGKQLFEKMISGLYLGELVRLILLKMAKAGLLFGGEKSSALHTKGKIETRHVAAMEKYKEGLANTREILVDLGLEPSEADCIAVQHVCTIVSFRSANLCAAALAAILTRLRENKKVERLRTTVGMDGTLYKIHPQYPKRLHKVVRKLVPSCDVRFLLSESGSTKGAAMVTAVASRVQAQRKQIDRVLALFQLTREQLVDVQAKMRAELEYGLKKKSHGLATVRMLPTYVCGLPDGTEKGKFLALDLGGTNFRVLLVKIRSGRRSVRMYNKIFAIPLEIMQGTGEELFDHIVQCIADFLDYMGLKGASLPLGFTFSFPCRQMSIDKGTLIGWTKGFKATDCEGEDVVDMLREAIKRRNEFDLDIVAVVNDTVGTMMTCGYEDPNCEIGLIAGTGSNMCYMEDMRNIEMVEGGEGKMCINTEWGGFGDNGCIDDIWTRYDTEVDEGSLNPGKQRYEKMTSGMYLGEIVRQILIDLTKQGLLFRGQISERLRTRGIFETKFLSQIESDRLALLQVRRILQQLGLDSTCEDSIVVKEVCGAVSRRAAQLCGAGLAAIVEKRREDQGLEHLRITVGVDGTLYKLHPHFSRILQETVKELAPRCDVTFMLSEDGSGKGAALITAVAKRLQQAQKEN
# Hexokinase-1 = Hexokinase-1 (Homo sapiens, UniProt P19367); assay: HK1 enzyme activation by HKDC1 hits – biochemical, selectivity assay for HKDC1 activator project, dose response (AID 504762); type: functional
# Nonstructural protein 1 = Nonstructural protein 1 (Influenza A virus, UniProt Q194T2); type: functional, Influenza A virus (A/California/07/2009(H1N1))
# J774.A1 = assay: Confirmation of image-based Screening Assay for Inhibitors of Phagocytosis. [Related pubchem assays (depositor defined):AID1029, AID1643]; type: functional, cell-based; details: Mus musculus
# [12] = target: T7, E3 ubiquitin-protein ligase XIAP (Homo sapiens, UniProt P98170); assay: Counter Screen using XIAP-Bir3 of the Chemical Antagonists of IAP-family anti-apoptotic proteins confirmation assay. [Related pubchem assays (depositor defined):AID1018, AID1449, AID1513, AID1638, AID1749, AID1750, AID488957, AID488963]
# [13] = target: Eukaryotic translation initiation factor 4E (Mus musculus, UniProt P63073); assay: blockers of eIF4G binding by eIF4E – biochemical, TR-FRET, dose response (AID 855); type: functional;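 note: potency for disrupting eIF4E binding to eIF4GI seen as loss of FRET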
# [14] = target: T7, E3 ubiquitin-protein ligase XIAP; assay: Chemical Antagonists of IAP-family anti-apoptotic proteins confirmation. [Related pubchem assays (depositor defined):AID1018, AID1513, AID1514, AID1638, AID1749, AID1750, AID488957, AID488963]
# [15] = target: T7, E3 ubiquitin-protein ligase XIAP; assay: small molecules displacing peptide from XIAP – biochemical, IAP family, fluorescence polarization (AID 1018); type: functional
# Hexokinase HKDC1 [16] = target: T6, Hexokinase HKDC1; assay: inhibition of HKDC1 glucose phosphorylation – biochemical, W721R variant, dose response (AID 504729); type: functional
# [17] = target: T8, Alkaline phosphatase, tissue-nonspecific isozyme (Homo sapiens, UniProt P05186); assay: potency against alkaline phosphatase TNAP – biochemical, luminescent, dose response, SAR follow-up (AID 1056)
# T8 sequence (P05186 whole entry): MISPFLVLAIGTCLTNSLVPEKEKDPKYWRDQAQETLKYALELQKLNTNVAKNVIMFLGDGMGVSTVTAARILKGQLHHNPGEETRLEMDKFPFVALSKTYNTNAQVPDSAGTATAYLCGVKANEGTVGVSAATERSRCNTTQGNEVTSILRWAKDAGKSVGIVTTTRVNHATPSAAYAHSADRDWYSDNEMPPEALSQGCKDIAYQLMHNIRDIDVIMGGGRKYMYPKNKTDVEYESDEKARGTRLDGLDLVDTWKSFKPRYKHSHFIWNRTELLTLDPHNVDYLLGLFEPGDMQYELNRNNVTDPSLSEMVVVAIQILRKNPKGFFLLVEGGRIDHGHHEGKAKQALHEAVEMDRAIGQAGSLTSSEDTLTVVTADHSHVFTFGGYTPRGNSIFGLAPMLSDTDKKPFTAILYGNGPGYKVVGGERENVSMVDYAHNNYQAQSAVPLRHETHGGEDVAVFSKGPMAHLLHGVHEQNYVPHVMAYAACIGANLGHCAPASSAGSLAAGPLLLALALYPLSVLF
# [18] = target: Glyceraldehyde-3-phosphate dehydrogenase (Homo sapiens, UniProt P04406)
# Chain of Glyceraldehyde-3-phosphate dehydrogenase (P04406 whole entry): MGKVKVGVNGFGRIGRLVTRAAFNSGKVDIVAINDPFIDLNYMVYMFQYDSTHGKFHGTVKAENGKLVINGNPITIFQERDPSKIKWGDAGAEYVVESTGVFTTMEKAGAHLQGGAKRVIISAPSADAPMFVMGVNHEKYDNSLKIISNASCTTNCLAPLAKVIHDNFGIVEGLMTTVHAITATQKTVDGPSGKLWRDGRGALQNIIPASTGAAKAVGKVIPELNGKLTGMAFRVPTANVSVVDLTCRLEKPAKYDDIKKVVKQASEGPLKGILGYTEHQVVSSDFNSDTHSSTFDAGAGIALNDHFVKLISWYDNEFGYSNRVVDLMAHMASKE
# T7 sequence (P98170 whole entry): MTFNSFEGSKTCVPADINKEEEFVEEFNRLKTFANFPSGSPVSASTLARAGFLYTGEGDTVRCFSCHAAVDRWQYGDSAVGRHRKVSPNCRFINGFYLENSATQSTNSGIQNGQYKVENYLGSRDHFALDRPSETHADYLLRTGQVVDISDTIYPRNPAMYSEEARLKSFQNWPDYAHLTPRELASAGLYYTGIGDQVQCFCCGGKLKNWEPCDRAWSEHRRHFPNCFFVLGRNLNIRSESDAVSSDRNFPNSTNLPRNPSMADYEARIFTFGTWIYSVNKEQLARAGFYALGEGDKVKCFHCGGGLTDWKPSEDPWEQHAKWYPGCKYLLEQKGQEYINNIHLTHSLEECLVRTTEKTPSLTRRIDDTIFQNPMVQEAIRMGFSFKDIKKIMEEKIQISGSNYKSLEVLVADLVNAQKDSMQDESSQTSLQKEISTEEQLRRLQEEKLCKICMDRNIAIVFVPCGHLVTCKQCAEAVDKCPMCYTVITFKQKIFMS
# T1 sequence (Q9HC97 whole entry): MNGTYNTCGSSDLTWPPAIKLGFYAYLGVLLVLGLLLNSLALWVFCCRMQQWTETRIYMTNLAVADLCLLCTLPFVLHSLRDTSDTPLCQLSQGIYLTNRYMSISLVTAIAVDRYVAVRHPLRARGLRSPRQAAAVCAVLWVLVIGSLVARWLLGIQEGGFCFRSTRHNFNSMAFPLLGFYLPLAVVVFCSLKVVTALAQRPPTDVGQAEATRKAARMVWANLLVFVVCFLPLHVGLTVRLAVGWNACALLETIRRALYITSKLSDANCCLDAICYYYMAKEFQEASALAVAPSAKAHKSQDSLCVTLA
# T2 sequence (P41145 whole entry): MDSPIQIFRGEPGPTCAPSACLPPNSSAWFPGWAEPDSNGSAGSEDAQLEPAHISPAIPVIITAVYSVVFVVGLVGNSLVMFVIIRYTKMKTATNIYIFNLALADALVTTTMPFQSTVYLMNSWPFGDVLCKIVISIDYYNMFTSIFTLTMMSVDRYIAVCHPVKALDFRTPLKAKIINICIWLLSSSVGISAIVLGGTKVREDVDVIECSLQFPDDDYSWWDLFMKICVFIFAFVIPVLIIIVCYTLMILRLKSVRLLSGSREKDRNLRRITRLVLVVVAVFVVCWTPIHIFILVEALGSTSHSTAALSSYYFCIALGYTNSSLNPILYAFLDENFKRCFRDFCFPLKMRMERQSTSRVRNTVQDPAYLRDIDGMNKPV
# Chain of G-protein coupled receptor 55 (Q9Y2T6 whole entry): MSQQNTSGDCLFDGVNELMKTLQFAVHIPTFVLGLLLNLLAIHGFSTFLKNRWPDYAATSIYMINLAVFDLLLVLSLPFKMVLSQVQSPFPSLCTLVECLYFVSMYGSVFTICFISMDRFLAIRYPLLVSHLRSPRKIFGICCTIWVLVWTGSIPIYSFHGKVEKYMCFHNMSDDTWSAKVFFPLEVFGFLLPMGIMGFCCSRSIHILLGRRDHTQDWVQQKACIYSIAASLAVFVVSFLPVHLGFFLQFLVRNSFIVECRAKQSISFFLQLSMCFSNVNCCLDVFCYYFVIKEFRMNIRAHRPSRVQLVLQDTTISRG
# Chain of Voltage-dependent T-type calcium channel subunit alpha-1H (O95180 whole entry): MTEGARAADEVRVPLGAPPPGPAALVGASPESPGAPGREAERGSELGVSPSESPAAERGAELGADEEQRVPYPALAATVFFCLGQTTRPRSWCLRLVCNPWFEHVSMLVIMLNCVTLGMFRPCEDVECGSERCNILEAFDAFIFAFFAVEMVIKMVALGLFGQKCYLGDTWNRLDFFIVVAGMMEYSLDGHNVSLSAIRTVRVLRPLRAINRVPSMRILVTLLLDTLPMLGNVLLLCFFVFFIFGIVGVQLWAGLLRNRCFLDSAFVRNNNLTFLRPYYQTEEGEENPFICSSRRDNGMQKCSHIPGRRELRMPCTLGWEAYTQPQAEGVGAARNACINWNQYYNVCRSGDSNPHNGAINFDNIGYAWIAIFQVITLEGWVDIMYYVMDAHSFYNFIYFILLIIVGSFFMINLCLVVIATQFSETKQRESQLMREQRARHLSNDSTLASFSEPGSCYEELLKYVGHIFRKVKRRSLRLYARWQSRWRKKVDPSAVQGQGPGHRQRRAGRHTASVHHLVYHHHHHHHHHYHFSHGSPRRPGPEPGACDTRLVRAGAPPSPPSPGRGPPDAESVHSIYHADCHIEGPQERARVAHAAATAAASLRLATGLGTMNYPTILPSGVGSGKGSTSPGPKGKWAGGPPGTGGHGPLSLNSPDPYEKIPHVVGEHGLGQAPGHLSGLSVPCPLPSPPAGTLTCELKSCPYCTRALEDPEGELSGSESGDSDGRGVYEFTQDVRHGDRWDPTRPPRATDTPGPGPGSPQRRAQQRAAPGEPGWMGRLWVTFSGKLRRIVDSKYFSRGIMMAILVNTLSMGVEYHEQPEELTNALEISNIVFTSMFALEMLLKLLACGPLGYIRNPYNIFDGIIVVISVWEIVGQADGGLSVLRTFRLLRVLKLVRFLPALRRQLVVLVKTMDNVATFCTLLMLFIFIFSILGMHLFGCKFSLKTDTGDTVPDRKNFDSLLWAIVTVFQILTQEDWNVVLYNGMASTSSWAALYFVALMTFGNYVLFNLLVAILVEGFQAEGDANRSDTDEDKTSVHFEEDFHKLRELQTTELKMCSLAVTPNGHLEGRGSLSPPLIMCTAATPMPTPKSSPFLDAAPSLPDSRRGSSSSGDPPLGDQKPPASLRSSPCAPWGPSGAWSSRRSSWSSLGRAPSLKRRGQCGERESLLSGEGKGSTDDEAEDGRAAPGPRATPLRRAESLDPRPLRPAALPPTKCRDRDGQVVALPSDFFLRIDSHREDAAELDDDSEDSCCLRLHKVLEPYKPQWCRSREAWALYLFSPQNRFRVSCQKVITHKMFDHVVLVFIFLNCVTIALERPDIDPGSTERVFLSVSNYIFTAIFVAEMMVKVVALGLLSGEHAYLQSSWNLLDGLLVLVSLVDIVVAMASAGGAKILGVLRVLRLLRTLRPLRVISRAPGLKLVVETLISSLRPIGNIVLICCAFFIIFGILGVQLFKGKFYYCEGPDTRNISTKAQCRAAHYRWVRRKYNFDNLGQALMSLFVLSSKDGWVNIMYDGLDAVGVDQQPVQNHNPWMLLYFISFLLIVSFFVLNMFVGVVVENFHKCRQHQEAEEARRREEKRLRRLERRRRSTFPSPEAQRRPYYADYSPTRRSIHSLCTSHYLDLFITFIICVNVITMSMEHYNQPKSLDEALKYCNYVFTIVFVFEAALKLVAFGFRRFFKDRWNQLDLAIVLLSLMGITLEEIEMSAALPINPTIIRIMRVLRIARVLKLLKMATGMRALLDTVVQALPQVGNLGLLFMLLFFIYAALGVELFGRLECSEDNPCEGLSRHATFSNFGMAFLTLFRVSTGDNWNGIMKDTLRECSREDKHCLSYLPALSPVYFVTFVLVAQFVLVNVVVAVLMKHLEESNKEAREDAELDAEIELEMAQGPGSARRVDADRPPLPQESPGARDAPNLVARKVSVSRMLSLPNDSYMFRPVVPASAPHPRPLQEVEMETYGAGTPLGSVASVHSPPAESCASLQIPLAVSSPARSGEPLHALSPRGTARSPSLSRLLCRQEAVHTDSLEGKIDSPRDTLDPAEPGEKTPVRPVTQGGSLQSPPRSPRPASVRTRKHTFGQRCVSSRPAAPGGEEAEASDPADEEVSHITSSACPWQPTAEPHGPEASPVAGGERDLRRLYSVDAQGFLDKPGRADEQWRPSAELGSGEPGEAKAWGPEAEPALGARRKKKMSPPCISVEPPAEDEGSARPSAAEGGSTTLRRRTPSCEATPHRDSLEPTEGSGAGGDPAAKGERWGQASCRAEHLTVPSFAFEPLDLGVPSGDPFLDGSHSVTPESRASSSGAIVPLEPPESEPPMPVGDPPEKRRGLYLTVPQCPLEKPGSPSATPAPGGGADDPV
# Chain of Nonstructural protein 1 (Q194T2 whole entry): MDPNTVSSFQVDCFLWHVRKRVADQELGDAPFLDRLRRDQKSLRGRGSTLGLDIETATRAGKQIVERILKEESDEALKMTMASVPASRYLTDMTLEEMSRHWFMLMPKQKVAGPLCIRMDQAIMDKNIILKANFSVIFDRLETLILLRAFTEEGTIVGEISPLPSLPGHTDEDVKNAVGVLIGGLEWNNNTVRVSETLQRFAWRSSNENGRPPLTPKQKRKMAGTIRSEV
# Chain of Delta-type opioid receptor (P41143 whole entry): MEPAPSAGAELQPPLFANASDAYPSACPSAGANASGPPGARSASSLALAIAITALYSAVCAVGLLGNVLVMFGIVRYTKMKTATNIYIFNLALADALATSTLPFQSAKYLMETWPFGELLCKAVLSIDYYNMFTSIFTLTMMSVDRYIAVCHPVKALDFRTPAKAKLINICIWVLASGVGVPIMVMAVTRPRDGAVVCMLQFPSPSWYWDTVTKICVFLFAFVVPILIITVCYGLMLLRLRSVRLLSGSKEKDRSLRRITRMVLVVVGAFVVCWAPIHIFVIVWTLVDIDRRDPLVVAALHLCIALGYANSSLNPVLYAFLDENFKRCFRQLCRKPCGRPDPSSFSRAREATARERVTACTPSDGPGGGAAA
# Chain of Eukaryotic translation initiation factor 4E (P63073 whole entry): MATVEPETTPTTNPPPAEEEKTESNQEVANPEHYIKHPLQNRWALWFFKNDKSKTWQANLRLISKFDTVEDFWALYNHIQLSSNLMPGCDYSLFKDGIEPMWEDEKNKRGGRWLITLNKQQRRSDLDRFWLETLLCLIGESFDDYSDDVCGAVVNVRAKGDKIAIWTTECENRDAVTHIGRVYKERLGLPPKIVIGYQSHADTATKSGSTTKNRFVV
smiles,measurement,setting,value
COC(=O)c1cnn(-c2ccc(F)cc2F)c1/C=N/NC(=S)NC(C)(C)C,IC50,[1],0.16 µM (active)
same,IC50,[2],1.39 µM (active)
same,IC50,[3],< 0.5 µM (active)
same,IC50,[4],9.08 µM (active)
CC(C)(Oc1ccccc1)C(=O)Nc1nnc(-c2ccc3ccccc3c2)o1,EC50,[5],1.1 µM (active)
Cc1ccc(S(=O)(=O)NCc2ccc(C(=O)NCCN3CCC(c4ccccc4)CC3)cc2)cc1,IC50,[6],> 32 µM (inactive)
same,IC50,Mu-type opioid receptor,3.88 µM (active)
same,IC50,[7],10.6 µM (inactive)
same,IC50,[8],> 20 µM (inactive)
CCN(CC)CCNC(=O)CCCNC(=O)Cn1cnc2sc(C)c(C)c2c1=O,EC50,T-cell,9.52 µM (active)
CS(=O)(=O)Nc1nc2n(n1)C(c1ccccc1)C=C(c1ccc(Br)cc1)N2 (stereo unspecified),EC50,[9],> 300 µM (not active)
same,EC50,[10],6.39 µM (active)
same,AC50,ORF 73,8.07 µM (active)
same,IC50,Aminopeptidase N,45.3 µM (active)
CC(=NNC(=S)N1CCCCC1)c1cccc(C)n1,AC50,HEK293,2.74 µM (active)
same,EC50,Hexokinase HKDC1 [11],14.5 µM (active)
same,EC50,Hexokinase-1,> 80 µM (inactive)
same,IC50,Nonstructural protein 1,3.84 µM (active)
O=C(COc1ccc(-c2ccccc2)cc1)N1CCN(S(=O)(=O)Cc2ccccc2)CC1,IC50,J774.A1,> 25 µM (inactive)
O=C(O)[C@@H](c1ccccc1)N1Cc2ccccc2C1=O,IC50,[12],> 200 µM (inactive)
same,IC50,[13],13.8 µM (active)
same,IC50,[14],65.6 µM (active)
same,IC50,[15],28.3 µM (active)
same,IC50,Hexokinase HKDC1 [16],13.7 µM (active)
c1cncc(-n2cncn2)c1,IC50,[17],> 100 µM (inactive)
same,IC50,[18],> 100 µM (not active)
